# Data reported in patent publication US12233161B1, “Lipids and lipid nanoparticle formulations” (LONGUIDE BIOPHARMA CORPORATION, priority 2024, dated 2025).
# Assays:
# [1] = Particle size and PDI of nucleic acid lipid nanoparticle preparations by dynamic light scattering; format: physicochemical
# Method in brief: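 Nanoparticle suspension (about 0.04 mg/mL mRNA) diluted in ultrapure water, mixed by gentle pipetting; particle size measured by dynamic light scattering. Zeta potential measured on the recovered sample after further dilution in ultrapure water.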
# [2] = Potential characterization of nucleic acid lipid nanoparticle preparations; format: physicochemical
# Method in brief: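 Nanoparticles (about 0.04 mg/mL mRNA) were diluted in ultrapure water for Malvern ZEN3700 measurement: 20 μL into 780 μL for potential alone, or 27.5 μL into 200 μL for DLS particle size followed by addition of 600 μL water for potential.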
# [3] = tested on: mice; test: In vivo delivery of FLuc-mRNA lipid nanoparticles in mice, in vivo imaging (IVIS); conditions: for IVIS: Fluc-mRNA
# Method in brief: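 Mice (n=3) received about 75 μL FLuc-mRNA LNP per mouse intramuscularly (rectus femoris), intravenously (tail vein), intraperitoneally or subcutaneously (back). After injection, D-luciferin (200 μL, 15 mg/mL) was given i.p. 10-15 min before IVIS imaging.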
# [4] = DMG-PEG2000:DSPC:Chol:compound 1.40:11.15:38.95:48.50, N/P 30
# [5] = IV, liver, DMG-PEG2000:DSPC:Chol:compound 1.40:11.15:38.95:48.50, N/P 30
# [6] = IV, lung, DMG-PEG2000:DSPC:Chol:compound 1.40:11.15:38.95:48.50, N/P 30
# [7] = IV, spleen, DMG-PEG2000:DSPC:Chol:compound 1.40:11.15:38.95:48.50, N/P 30
# [8] = DSPE-PEG5000:DSPC:Chol:compound 1.40:11.15:38.95:48.50, N/P 30
# [9] = IM, DSPE-PEG5000:DSPC:Chol:compound 1.40:11.15:38.95:48.50, N/P 30
# [10] = IV, organ not given, DSPE-PEG5000:DSPC:Chol:compound 1.40:11.15:38.95:48.50, N/P 30
# [11] = DMG-PEG2000:DPPC:Chol:compound 1.40:11.15:38.95:48.50, N/P 30
# [12] = IM, DMG-PEG2000:DPPC:Chol:compound 1.40:11.15:38.95:48.50, N/P 30
# [13] = IV, body, DMG-PEG2000:DPPC:Chol:compound 1.40:11.15:38.95:48.50, N/P 30
# [14] = IV, liver, DMG-PEG2000:DPPC:Chol:compound 1.40:11.15:38.95:48.50, N/P 30
# [15] = IV, lung, DMG-PEG2000:DPPC:Chol:compound 1.40:11.15:38.95:48.50, N/P 30
# [16] = IV, spleen, DMG-PEG2000:DPPC:Chol:compound 1.40:11.15:38.95:48.50, N/P 30
Structure (SMILES),"PDI [1, 8]","Particle size (nm) [1, 8]","Zeta potential (mV) [2, 8]","IVIS [3, 9]","IVIS [3, 10]","PDI [1, 11]","Particle size (nm) [1, 11]","Zeta potential (mV) [2, 11]","IVIS [3, 12]","IVIS [3, 13]","% of organ targeting [3, 14]","IVIS [3, 14]","% of organ targeting [3, 15]","IVIS [3, 15]","% of organ targeting [3, 16]","IVIS [3, 16]",also measured
CCCCCCOC(C)OCCCCCCOC(=O)C(O)CN(CCCN(CC(O)C(=O)OCCCCCCOC(C)OCCCCCC)CC(O)C(=O)OCCCCCCOC(C)OCCCCCC)CCCN(CC(O)C(=O)OCCCCCCOC(C)OCCCCCC)CC(O)C(=O)OCCCCCCOC(C)OCCCCCC (stereo not drawn) [Compound L0340],–,–,–,–,–,–,–,–,–,–,–,–,–,–,–,–,"PDI [1, 4]: 0.12; Particle size (nm) [1, 4]: 125.77 nm; Zeta potential (mV) [2, 4]: 4.11 mV; IVIS ([3]; IM, DMG-PEG2000:DSPC:Chol:compound 1.40:11.15:38.95:48.50, N/P 30): 4.87E+07; IVIS ([3]; IV, body, DMG-PEG2000:DSPC:Chol:compound 1.40:11.15:38.95:48.50, N/P 30): 9.07E+07; % of organ targeting [3, 5]: 65.77%; IVIS [3, 5]: 2.85E+07; % of organ targeting [3, 6]: 1.45%; IVIS [3, 6]: 6.29E+05; % of organ targeting [3, 7]: 32.78%; IVIS [3, 7]: 1.42E+07"
CCCCCCCCCCCCN(C)C(=O)C(O)CN(C)CCN(C)CCN(C)CC(O)C(=O)N(C)CCCCCCCCCCCC (stereo not drawn) [Compound L0341],0.18,212.5 nm,7.85 mV,9.99E+04,4.10E+05,–,–,–,–,–,–,–,–,–,–,–,–
CCCCCCCCCCCCN(C)C(=O)C(O)CN(CCCN(CC(O)C(=O)N(C)CCCCCCCCCCCC)CC(O)C(=O)N(C)CCCCCCCCCCCC)CCCN(CC(O)C(=O)N(C)CCCCCCCCCCCC)CC(O)C(=O)N(C)CCCCCCCCCCCC (stereo not drawn) [Compound L0342],0.24,73.79 nm,5.68 mV,2.02E+07,5.77E+06,–,–,–,–,–,–,–,–,–,–,–,–
CCCCCCCCCCCCN(C)C(=O)C(O)CN(C)CCCN(C)CCCN(C)CC(O)C(=O)N(C)CCCCCCCCCCCC (stereo not drawn) [Compound L0343],–,–,–,–,–,0.24,116.17 nm,4.33 mV,9.39E+04,–,–,–,–,–,–,–,"IVIS ([3]; IV, organ not given, DMG-PEG2000:DPPC:Chol:compound 1.40:11.15:38.95:48.50, N/P 30): 2.20E+05"
CCCCCCCCCCCCN(C)C(=O)C(O)CN(CCN(C)CCN(CC(O)C(=O)N(C)CCCCCCCCCCCC)CC(O)C(=O)N(C)CCCCCCCCCCCC)CC(O)C(=O)N(C)CCCCCCCCCCCC (stereo not drawn) [Compound L0344],–,–,–,–,–,0.26,89.56 nm,16.13 mV,8.28E+04,1.91E+06,2.01%,1.15E+05,93.07%,5.32E+06,4.92%,2.81E+05,–
CCCCCCCCCCCCN(C)C(=O)C(O)CN(CCCN(C)CCCN(CC(O)C(=O)N(C)CCCCCCCCCCCC)CC(O)C(=O)N(C)CCCCCCCCCCCC)CC(O)C(=O)N(C)CCCCCCCCCCCC (stereo not drawn) [Compound L0345],–,–,–,–,–,0.19,81.64 nm,10.25 mV,3.56E+05,2.28E+06,1.89%,1.27E+05,90.22%,6.05E+06,7.89%,5.29E+05,–
